Assay results as given in PubChem BioAssay (NCI).
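Method: 48-hour compound exposure of cells in 96-well plates, five concentrations, linear interpolation of endpoints. TGI: concentration producing complete growth inhibition.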

Experiments:
Experiment in all cases: DTP human tumour cell line panel, 48 h
XF 498 CNS = system: XF 498 CNS
U251 CNS = system: U251 CNS
NCI-H23 lung = system: NCI-H23 lung
RPMI-8226 leukemia = system: RPMI-8226 leukemia
RXF 393 renal = system: RXF 393 renal
HOP-18 NSCLC = system: HOP-18 NSCLC
SR leukemia = system: SR leukemia
KM12 colon = system: KM12 colon
HCT-15 colon = system: HCT-15 colon
OVCAR-8 ovarian = system: OVCAR-8 ovarian
A549 NSCLC = system: A549 NSCLC
HT29 colon = system: HT29 colon
MOLT-4 leukemia = system: MOLT-4 leukemia
SW-620 colon = system: SW-620 colon
SNB-75 CNS = system: SNB-75 CNS
CAKI-1 renal = system: CAKI-1 renal
OVCAR-5 ovarian = system: OVCAR-5 ovarian
UACC-62 melanoma = system: UACC-62 melanoma
NCI-H226 lung = system: NCI-H226 lung
TK-10 renal = system: TK-10 renal
SN12C renal = system: SN12C renal
DMS 273 small cell lung = system: DMS 273 small cell lung
KM20L2 colon = system: KM20L2 colon
HL-60(TB) leukemia = system: HL-60(TB) leukemia
EKVX NSCLC = system: EKVX NSCLC
OVCAR-4 ovarian = system: OVCAR-4 ovarian
UO-31 renal = system: UO-31 renal
OVCAR-3 ovarian = system: OVCAR-3 ovarian
SF-295 CNS = system: SF-295 CNS
A498 renal = system: A498 renal
DLD-1 colon = system: DLD-1 colon
ACHN renal = system: ACHN renal
HCC-2998 colon = system: HCC-2998 colon
SK-MEL-28 melanoma = system: SK-MEL-28 melanoma
SNB-78 CNS = system: SNB-78 CNS
COLO 205 colon = system: COLO 205 colon
CCRF-CEM leukemia = system: CCRF-CEM leukemia
LXFL 529 NSCLC = system: LXFL 529 NSCLC
HCT-116 colon = system: HCT-116 colon
HOP-62 NSCLC = system: HOP-62 NSCLC
LOX IMVI melanoma = system: LOX IMVI melanoma
UACC-257 melanoma = system: UACC-257 melanoma
K-562 leukemia = system: K-562 leukemia
SF-539 CNS = system: SF-539 CNS
SK-MEL-2 melanoma = system: SK-MEL-2 melanoma
M19-MEL melanoma = system: M19-MEL melanoma
SNB-19 CNS = system: SNB-19 CNS
SK-MEL-5 melanoma = system: SK-MEL-5 melanoma
M14 melanoma = system: M14 melanoma
786-0 renal = system: 786-0 renal
SK-OV-3 ovarian = system: SK-OV-3 ovarian
HOP-92 NSCLC = system: HOP-92 NSCLC
SF-268 CNS = system: SF-268 CNS
MALME-3M melanoma = system: MALME-3M melanoma
NCI-H522 lung = system: NCI-H522 lung
IGROV1 ovarian = system: IGROV1 ovarian
NCI-H460 lung = system: NCI-H460 lung
DMS 114 small cell lung = system: DMS 114 small cell lung

## Clc1ccc(-n2nnc(C3=NCCN3)c2-c2ccccc2)cc1
XF 498 CNS
  TGI: > 100 µM
U251 CNS
  TGI: > 100 µM
NCI-H23 lung
  TGI: > 100 µM
RPMI-8226 leukemia
  TGI: > 100 µM
RXF 393 renal
  TGI: > 100 µM
HOP-18 NSCLC
  TGI: > 100 µM
SR leukemia
  TGI: > 100 µM
KM12 colon
  TGI: > 100 µM
HCT-15 colon
  TGI: > 100 µM
OVCAR-8 ovarian
  TGI: > 100 µM
A549 NSCLC
  TGI: > 100 µM
HT29 colon
  TGI: > 100 µM
MOLT-4 leukemia
  TGI: > 100 µM
SW-620 colon
  TGI: > 100 µM
SNB-75 CNS
  TGI: > 100 µM
CAKI-1 renal
  TGI: > 100 µM
OVCAR-5 ovarian
  TGI: > 100 µM
UACC-62 melanoma
  TGI: > 100 µM
NCI-H226 lung
  TGI: > 100 µM
TK-10 renal
  TGI: > 100 µM
SN12C renal
  TGI: > 100 µM
DMS 273 small cell lung
  TGI: > 100 µM
KM20L2 colon
  TGI: > 100 µM
HL-60(TB) leukemia
  TGI: > 100 µM
EKVX NSCLC
  TGI: > 100 µM
OVCAR-4 ovarian
  TGI: > 100 µM
UO-31 renal
  TGI: > 100 µM
OVCAR-3 ovarian
  TGI: > 100 µM
SF-295 CNS
  TGI: > 100 µM
A498 renal
  TGI: > 100 µM
DLD-1 colon
  TGI: > 100 µM
ACHN renal
  TGI: > 100 µM
HCC-2998 colon
  TGI: > 100 µM
SK-MEL-28 melanoma
  TGI: > 100 µM
SNB-78 CNS
  TGI: > 100 µM
COLO 205 colon
  TGI: > 100 µM
CCRF-CEM leukemia
  TGI: > 100 µM
LXFL 529 NSCLC
  TGI: > 100 µM
HCT-116 colon
  TGI: > 100 µM
HOP-62 NSCLC
  TGI: > 100 µM
LOX IMVI melanoma
  TGI: > 100 µM
UACC-257 melanoma
  TGI: > 100 µM
K-562 leukemia
  TGI: > 100 µM
SF-539 CNS
  TGI: > 100 µM
SK-MEL-2 melanoma
  TGI: > 100 µM
M19-MEL melanoma
  TGI: > 100 µM
SNB-19 CNS
  TGI: > 100 µM
SK-MEL-5 melanoma
  TGI: > 100 µM
M14 melanoma
  TGI: > 100 µM
786-0 renal
  TGI: > 100 µM
SK-OV-3 ovarian
  TGI: > 100 µM
HOP-92 NSCLC
  TGI: > 100 µM
SF-268 CNS
  TGI: > 100 µM
MALME-3M melanoma
  TGI: > 100 µM
NCI-H522 lung
  TGI: > 100 µM
IGROV1 ovarian
  TGI: > 100 µM
NCI-H460 lung
  TGI: > 100 µM
DMS 114 small cell lung
  TGI: > 100 µM

## O=c1n(C2CCCCC2)c(=C(Cl)Cl)c(=C(Cl)Cl)n1C1CCCCC1
XF 498 CNS
  TGI: > 100 µM
U251 CNS
  TGI: > 100 µM
NCI-H23 lung
  TGI: > 100 µM
RPMI-8226 leukemia
  TGI: > 100 µM
RXF 393 renal
  TGI: > 100 µM
HOP-18 NSCLC
  TGI: > 100 µM
SR leukemia
  TGI: > 100 µM
KM12 colon
  TGI: > 100 µM
HCT-15 colon
  TGI: > 100 µM
OVCAR-8 ovarian
  TGI: > 100 µM
A549 NSCLC
  TGI: > 100 µM
HT29 colon
  TGI: > 100 µM
MOLT-4 leukemia
  TGI: > 100 µM
SW-620 colon
  TGI: > 100 µM
SNB-75 CNS
  TGI: > 100 µM
OVCAR-5 ovarian
  TGI: > 100 µM
UACC-62 melanoma
  TGI: > 100 µM
NCI-H226 lung
  TGI: > 100 µM
TK-10 renal
  TGI: > 100 µM
SN12C renal
  TGI: > 100 µM
DMS 273 small cell lung
  TGI: > 100 µM
KM20L2 colon
  TGI: > 100 µM
HL-60(TB) leukemia
  TGI: > 100 µM
EKVX NSCLC
  TGI: > 100 µM
OVCAR-4 ovarian
  TGI: > 100 µM
UO-31 renal
  TGI: > 100 µM
OVCAR-3 ovarian
  TGI: > 100 µM
SF-295 CNS
  TGI: > 100 µM
A498 renal
  TGI: > 100 µM
DLD-1 colon
  TGI: > 100 µM
ACHN renal
  TGI: > 100 µM
HCC-2998 colon
  TGI: > 100 µM
SK-MEL-28 melanoma
  TGI: > 100 µM
SNB-78 CNS
  TGI: > 100 µM
COLO 205 colon
  TGI: > 100 µM
CCRF-CEM leukemia
  TGI: > 100 µM
HCT-116 colon
  TGI: > 100 µM
HOP-62 NSCLC
  TGI: > 100 µM
LOX IMVI melanoma
  TGI: > 100 µM
UACC-257 melanoma
  TGI: > 100 µM
K-562 leukemia
  TGI: > 100 µM
SF-539 CNS
  TGI: > 100 µM
SK-MEL-2 melanoma
  TGI: > 100 µM
M19-MEL melanoma
  TGI: > 100 µM
SNB-19 CNS
  TGI: > 100 µM
SK-MEL-5 melanoma
  TGI: > 100 µM
786-0 renal
  TGI: > 100 µM
SK-OV-3 ovarian
  TGI: > 100 µM
SF-268 CNS
  TGI: > 100 µM
MALME-3M melanoma
  TGI: > 100 µM
NCI-H522 lung
  TGI: > 100 µM
IGROV1 ovarian
  TGI: > 100 µM
NCI-H460 lung
  TGI: > 100 µM
DMS 114 small cell lung
  TGI: > 100 µM

## CC(C)N(C(=O)C12C3C4C5(C#N)C3C1(I)C5C42I)C(C)C (stereo not given)
XF 498 CNS
  TGI: > 100 µM
U251 CNS
  TGI: > 100 µM
NCI-H23 lung
  TGI: > 100 µM
RPMI-8226 leukemia
  TGI: > 67.2 µM
RXF 393 renal
  TGI: > 100 µM
HOP-18 NSCLC
  TGI: > 100 µM
SR leukemia
  TGI: > 100 µM
KM12 colon
  TGI: > 100 µM
HCT-15 colon
  TGI: > 57.7 µM
OVCAR-8 ovarian
  TGI: > 100 µM
A549 NSCLC
  TGI: > 100 µM
HT29 colon
  TGI: > 100 µM
MOLT-4 leukemia
  TGI: > 100 µM
SW-620 colon
  TGI: > 53.1 µM
SNB-75 CNS
  TGI: > 100 µM
CAKI-1 renal
  TGI: > 100 µM
OVCAR-5 ovarian
  TGI: > 100 µM
UACC-62 melanoma
  TGI: > 100 µM
NCI-H226 lung
  TGI: > 100 µM
TK-10 renal
  TGI: > 100 µM
SN12C renal
  TGI: > 100 µM
DMS 273 small cell lung
  TGI: > 100 µM
KM20L2 colon
  TGI: > 100 µM
HL-60(TB) leukemia
  TGI: > 63.6 µM
EKVX NSCLC
  TGI: > 100 µM
OVCAR-4 ovarian
  TGI: > 77.4 µM
UO-31 renal
  TGI: > 100 µM
OVCAR-3 ovarian
  TGI: > 100 µM
SF-295 CNS
  TGI: > 100 µM
A498 renal
  TGI: > 100 µM
DLD-1 colon
  TGI: > 100 µM
ACHN renal
  TGI: > 100 µM
HCC-2998 colon
  TGI: > 100 µM
SK-MEL-28 melanoma
  TGI: > 100 µM
SNB-78 CNS
  TGI: > 100 µM
COLO 205 colon
  TGI: > 58.9 µM
CCRF-CEM leukemia
  TGI: > 61.8 µM
LXFL 529 NSCLC
  TGI: > 100 µM
HCT-116 colon
  TGI: 34.3 µM
HOP-62 NSCLC
  TGI: > 100 µM
LOX IMVI melanoma
  TGI: > 66.1 µM
UACC-257 melanoma
  TGI: > 100 µM
K-562 leukemia
  TGI: > 93.3 µM
SF-539 CNS
  TGI: > 100 µM
SK-MEL-2 melanoma
  TGI: > 100 µM
M19-MEL melanoma
  TGI: > 100 µM
SNB-19 CNS
  TGI: > 100 µM
SK-MEL-5 melanoma
  TGI: > 100 µM
M14 melanoma
  TGI: > 100 µM
786-0 renal
  TGI: > 64.7 µM
SK-OV-3 ovarian
  TGI: > 100 µM
HOP-92 NSCLC
  TGI: > 100 µM
SF-268 CNS
  TGI: > 100 µM
MALME-3M melanoma
  TGI: > 100 µM
NCI-H522 lung
  TGI: > 100 µM
IGROV1 ovarian
  TGI: > 100 µM
NCI-H460 lung
  TGI: > 100 µM
DMS 114 small cell lung
  TGI: > 59.7 µM
